# Results as given in patent publication US20220184037A1, “PHARMACEUTICAL AGENTS TARGETING CANCER STEM CELLS” (THE JOHNS HOPKINS UNIVERSITY, priority 2020, published 2022).
# Assays:
# Type in all cases: cell-based, human
# [1] = system: COX2; assay: Western blotting of COX2 expression in bladder cancer cells
# Procedure: (§1) Whole cell lysates were extracted using RIPA buffer (Thermo Scientific) supplemented with 10 μL/mL Halt™ Protease Inhibitor Cocktail Kit (Life Technologies) and 30 μL/mL Halt™ Phosphatase Inhibitor Cocktail Kit (Life Technologies). The protein concentrations were determined using a Pierce™ BCA Protein Assay Kit (Life Technologies), and the protein were separated on. NuPAGE 4-12% Bis-Tris Gel (Life Technologies) according to the manufacturer's protocol. COX2 (D5H5), NANOG (D73G4), OCT4 (D7O5Z), CD133 (A3G6K), Snail (C15D3), ZEBI (D80D3), Vimentin (D21H3), CDH2 (D4R1H), CDH1 (24E10), p-EGFR (D7A5), EGFR (D38B1), p-AKT (D9E), AKT (cat #, 9272), p-ERK (D13.14.4E), ERK (137F5), p-YAP1 (D9W2I), p-Src (cat #, 2101), Src (36D10), DNMT1 (D63A6), DNMT3A (D23G1), and DNMT3B (D7070) antibodies were obtained from Cell Signaling Technology (Danvers, Mass., USA), except for SOX2 (EPR3131; Abeam, Cambridge, USA), YAP1 (ab52771; Abeam), CD24 (cat #, AF5247-SP; R&D Systems, Minneapolis USA) and β-actin (A2228; Sigma-Aldrich). Secondary horseradish peroxidase (HRP)-conjugated antibodies were obtained from Cell Signaling Technology, and chemiluminescent detection of HRP-labeled antibodies was performed using Amersham ECL Prime Western Blotting Detection Reagent (GE Healthcare, Piscataway, USA). As loading control, β-actin was used.
# [2] = system: AKT and extracellular signal-related kinase (ERK); assay: Western blotting of AKT and ERK activation; conditions: basal-type cells, erlotinib
# Procedure: as §1
# [3] = system: BFTC 905 cells; assay: MTT assay, sensitivity to erlotinib (IC50); conditions: BFTC 905 cells harboring an NRAS mutation, 72 hours
# Procedure: (§2) Embryonic kidney cell line 293, SV-40 immortalized normal human urothelial cell line (HUC1), and bladder cancer cell lines 5637, FIT-1376, J82, SCaBER, RT-4, T24, and UM-UC3 were obtained from American. Type Culture Collection (ATCC; Manassas, Va., USA). Mediums were purchased from Mediatech (Manassas, USA) and supplemented with 10% FBS (Hyclone, Logan, USA) under a 5% CO2 atmosphere at 95% relative humidity. HUC-1, T24, and 5637 cells were grown in F-12K, McCoy's 5A, and RPMI 1640 medium, respectively, and all other cells were grown Dulbecco's modified Eagle medium (DMEM). BFTC 905 and BFTC 909 cell lines were established from arsenic-exposed urothelial carcinoma subjects (9) and obtained from the German Collection of Microorganisms and Cell Cultures (Braunschweig, Germany). Re-authentification of cells was performed using PowerPlex 16 HS for short tandem repeats analysis at Genetic resource core facility, the Johns Hopkins University School of Medicine, Institute of Genetic Medicine, and all cell lines have been confirmed as authentic. To prepare in vitro arsenic model, we chronically exposed HUC1 cells to 1 μM arsenic trioxide, as described previously (10) and arsenic-exposed (As) cells and passage-matched arsenic un-exposed control (UE) cells were stock for each months until 12 months. […]
# (§3) The cell proliferative and viability activity were measured using the 3-(4,5-dimethyl thiazol-2-yl)-2,5-diphenyltetrazolium bromide (MTT) Proliferation Assay Kit (ATCC; Manassas, Va., USA) according to the manufacturer's protocol. […] Spectrophotometric readings (570 nm-650 nm) were obtained on a Spectra Max 250 96-well plate reader (Molecular devices, Sunnyvale, USA). […] Cell viability was expressed as the ratio of absorbance values of the treated cells related to the untreated control cells considered as 1.0. The half maximal (50%) inhibitory concentration (IC50) value of drug was calculated by treatment with the various concentration for 72 hours using MTT assay. […]
# [4] = system: basal-type bladder cancer cell lines; assay: MTT assay, sensitivity to erlotinib (IC50); conditions: 72 hours
# Procedure: as §2, §3
# [5] = system: arsenic exposed (As)-HUC1 cells; assay: MTT assay, sensitivity to erlotinib (IC50); conditions: 72 hours (FIG. 1H)
# Procedure: as §2, §3
# [6] = system: promoters of miR-126, miR-296 and miR-200c; assay: Bisulfite sequencing of miRNA promoter methylation; conditions: spheroid cells
# Procedure: Cell pellets were digested with 1% sodium dodecyl sulfate and 50 μg/mL proteinase K (Roche, Nutley, USA) at 48° C. overnight. Isolation of genomic DNA from cell lines was performed with the phenol-chloroform extraction protocol followed by ethanol precipitation. Bisulfite treatment was conducted using an EpiTect Bisulfite K ft (QIAGEN, Valencia, USA), and was subsequently amplified via PCR using primers as shown in the following table. PCR products were purified using the QIAquick Gel Extraction kit (Qiagen), and sequenced by Genewiz DNA sequencing service (Genewiz, South Plainfield, USA). The data were analyzed using the Sequence Scanner v1.0 software (Life technologies). A methylation frequency of ≥50% of total CpG sites within the amplified region was considered “methylation-positive”.
SMILES,"COX2 expression ([1]; basal-type cells, 1 μM erlotinib)","levels of COX2 expression ([1]; non-basal-type cells, erlotinib)",activation of AKT and ERK [2],sensitivity to the EGFR inhibitor erlotinib [3],sensitivity to the EGFR inhibitor erlotinib [4],sensitivity to the EGFR inhibitor erlotinib [5],"promoter methylation of miR-126, miR-296, miR-200c [6]"
"C#Cc1cccc(Nc2ncnc3cc(OCCOC)c(OCCOC)cc23)c1 [erlotinib, Erlotinib]",increased COX2 expression,did not affect,suppressed activation,resistance,sensitive,sensitive,–
"Cc1ccc(-c2cc(C(F)(F)F)nn2-c2ccc(S(N)(=O)=O)cc2)cc1 [celecoxib, Celecoxib]",–,–,–,–,–,–,demethylated
